The values below come from patent US4357344A, “Polybutylbenzylphenols and benzyl-3,4-methylenedioxybenzenes in insect population control” (The United States of America as represented by the …, priority 1979, dated 1982).

What all share (format): in vivo
Data set [1] deals with early fourth-stage larvae of the common malaria mosquito (Anopheles quadrimaculatus). Put plainly: Growth-inhibition tests on mosquito larvae. Particulars: in water; corrected by Abbott's formula. The protocol:
The compound to be tested was added to one liter of water until the final concentration thereof was a growth-inhibiting amount. Fifty early fourth-stage larvae of the common malaria mosquito (Anopheles quadrimaculatus) were placed on this water. Larval food was administered daily. Dead larvae and pupae were removed, counted, and discarded daily. Live pupae were removed, rinsed, and transferred to a cup of distilled water. The cup was placed in an emergence cage, and the emerging adults, if any, were maintained on a sugar-water diet.
The effectiveness of the compound in inhibiting growth was determined by adding the number of dead larvae and pupae and the number of adults that were dead, unable to complete eclosion, and malformed. This sum was corrected by Abbott's formula (to adjust for the number of larvae or pupae which would die naturally) and designated as the GI (growth inhibition). The results are expressed as GI-90, i.e., the concentration of growth inhibitor in ppm that would prevent and/or retard growth in 90% of the treated larvae.

Data set [2] relates to flies (family Muscidae). Put plainly: Chemosterilancy tests (egg hatch and pupal development; Examples 6-9). The protocol:
The compound to be tested was administered in a standard fly food containing 6 parts of sugar, 6 parts of powdered non-fat dry milk, and 1 part of powdered egg yolk. Treated food was prepared by mixing an appropriate amount of a solution or suspension of CBCP in acetone with a batch of the food. The acetone was evaporated (4-6 hours) and the dry material was repulverized.
Chemosterilancy tests: If eggs were laid in the above tests, the cups were filled with water and stirred to break up the egg masses. A random sample of 100 eggs from each cup was collected and placed on a small piece of black cloth which was then laid on top of moist larva-rearing medium in a rearing container. Observations were made to determine percentage of egg hatch and pupal development.
The procedure outlined in Example 6 was followed using a Group II compound.
The procedure outlined in Example 6 was followed using Group III compounds. The results are summarized below:
The procedure outlined in Example 6 was followed substituting a Group IV compound for those of Group I. The table below provides a summary of results.

Data set [3] deals with flies (family Muscidae). Nature of the data set: Oviposition inhibition tests (treated fly food; Examples 6-9). The protocol: The compound to be tested was administered in a standard fly food containing 6 parts of sugar, 6 parts of powdered non-fat dry milk, and 1 part of powdered egg yolk. Treated food was prepared by mixing an appropriate amount of a solution or suspension of CBCP in acetone with a batch of the food. The acetone was evaporated (4-6 hours) and the dry material was repulverized. Oviposition inhibition tests: Samples of treated food with a container of water were placed in cages containing 100 newly-emerged adult flies (family Muscidae). After the flies had been exposed to the treated diet for 6-7 days, 1/2 inch of moist standard fly larva-rearing medium (CSMA) in souffle cups was placed in the cages for oviposition. After 4-6 hours, the cup was removed and examined for eggs. […] The procedure outlined in Example 6 was followed using a Group II compound. The procedure outlined in Example 6 was followed using Group III compounds. The results are summarized below: The procedure outlined in Example 6 was followed substituting a Group IV compound for those of Group I. The table below provides a summary of results.

On to `COc1cc2c(cc1C(C)c1ccccc1)OCO2` (stereo not drawn) [Compound T, (α-Methylbenzyl)-3,4-methylenedioxy-6-methoxybenzene], for which the “GI-90 (concentration of growth inhibitor that would prevent and/or retard growth in 90% of the treated larvae)” value in data set [1] amounted to 0.6 ppm. Also, the Egg hatch in data set [2] (0.25% in food) was 56%; in data set [2] (0.5% in food) it was 0%. Besides, the Pupal development in data set [2] (0.25% in food) worked out at 56%; in data set [2] (0.5% in food), 0%. Moreover, the “Mortality, parent generation” value came out at 60% in data set [3] (0.25% in food) and 42% in data set [3] (0.5% in food).
With `CCCc1cc2c(cc1Cc1ccc(OC)cc1)OCO2` [DD, (4-Methoxybenzyl)-3,4-methylenedioxy-6-n-propylbenzene], the “GI-90 (concentration of growth inhibitor that would prevent and/or retard growth in 90% of the treated larvae)” value in data set [1] was determined as 0.2 ppm. The Egg hatch in data set [2] (0.025% in food) amounted to 7%; in data set [2] (0.05% in food), 0%; in data set [2] (0.1% in food), 0%. Further, the Pupal development turned out to be 7% in data set [2] (0.025% in food), 0% in data set [2] (0.05% in food) and 0% in data set [2] (0.1% in food). Further, the “Mortality, parent generation” value in data set [3] (0.025% in food), in data set [3] (0.05% in food), in data set [3] (0.1% in food) and in data set [3] (0.25% in food) was 0% in each case.
As for `CC(c1ccccc1)c1cc(C(C)(C)C)c(O)c(C(C)(C)C)c1` (stereo not drawn) [E, 2,6-Di-t-butyl-4-(α-methylbenzyl)phenol], in data set [1], the “GI-90 (concentration of growth inhibitor that would prevent and/or retard growth in 90% of the treated larvae)” value amounted to 0.072 ppm. In addition, the Egg hatch in data set [2] (0.1% in food) amounted to 36%; in data set [2] (0.25% in food), 0%; in data set [2] (0.5% in food) it was 0%; in data set [2] (1.0% in food) it was 0%. The Pupal development in data set [2] (0.1% in food) was 36%; in data set [2] (0.25% in food), 0%; in data set [2] (0.5% in food), 0%; in data set [2] (1.0% in food), 0%. The “Mortality, parent generation” value in data set [3] (0.1% in food), in data set [3] (0.25% in food), in data set [3] (0.5% in food) and in data set [3] (1.0% in food) was 0% each time. The Oviposition result in data set [3] (1.0% in food) is recorded as “Normal”.
In the case of `COc1ccc(C(C)c2cc3c(cc2OC)OCO3)cc1` (stereo not drawn) [H, (α-Methyl-4-methoxybenzyl)-3,4-methylenedioxy-6-methoxybenzene], the “GI-90 (concentration of growth inhibitor that would prevent and/or retard growth in 90% of the treated larvae)” value in data set [1] is given as 0.5 ppm. The Egg hatch is 14% in data set [2] (0.01% in food) and 45% in data set [2] (0.025% in food). The Pupal development in data set [2] (0.01% in food) is listed as 14%; in data set [2] (0.025% in food) it was 45%. Besides, the “Mortality, parent generation” value in data set [3] (0.01% in food) and in data set [3] (0.025% in food) was 0% each time.
In data set [2] (0.1% in food), `COc1ccc(Cc2ccc3c(c2)OCO3)cc1C` [HH, (3-Methyl-4-methoxybenzyl)-3,4-methylenedioxybenzene] registered an Egg hatch of 82% and a Pupal development of 82%. Besides, the “Mortality, parent generation” value in data set [3] (0.1% in food) came to 0%. The “Mortality, parent generation” value in data set [3] (0.25% in food) was found to be 80%.
In data set [2] (0.25% in food), `CCOc1ccc(Cc2ccc3c(c2)OCO3)cc1C` [II, (3-Methyl-4-ethoxybenzyl)-3,4-methylenedioxybenzene] gave an Egg hatch of 50% and a Pupal development of 50%. Also, the “Mortality, parent generation” value in data set [3] (0.25% in food) worked out at 0%. In addition, in data set [3] (0.5% in food), the “Mortality, parent generation” value was 80%.
In the case of `CCCCOc1cc2c(cc1C(C)c1ccc(OC)cc1)OCO2` (stereo not drawn) [J, (α-methyl-4-methoxybenzyl)-3,4-methylenedioxy-6-n-butoxybenzene], the “GI-90 (concentration of growth inhibitor that would prevent and/or retard growth in 90% of the treated larvae)” value in data set [1] was 0.025 ppm. The Egg hatch in data set [2] (0.025% in food) stood at 61%; in data set [2] (0.05% in food) it was 3%. In addition, the Pupal development in data set [2] (0.025% in food) was found to be 61%; in data set [2] (0.05% in food) it was 3%. The “Mortality, parent generation” value in data set [3] (0.01% in food), in data set [3] (0.025% in food) and in data set [3] (0.05% in food) was 0% each time.
`COc1c(C)cc(Cc2ccc3c(c2)OCO3)cc1C` [JJ, (3,5-Dimethyl-4-methoxybenzyl)-3,4-methylenedioxybenzene]: the “GI-90 (concentration of growth inhibitor that would prevent and/or retard growth in 90% of the treated larvae)” value in data set [1] was found to be 0.6 ppm. The values for the Egg hatch in data set [2] (0.05% in food), in data set [2] (0.1% in food) and in data set [2] (0.25% in food) were 70%, 6% and 0%, respectively. Further, the Pupal development in data set [2] (0.05% in food) came to 70%; in data set [2] (0.1% in food) it was 6%; in data set [2] (0.25% in food), 0%. The “Mortality, parent generation” value in data set [3] (0.05% in food) was 0%; in data set [3] (0.1% in food), 0%; in data set [3] (0.25% in food) it was 0%; in data set [3] (0.5% in food), 70%.
As to `CCCCCOc1cc2c(cc1C(C)c1ccc(OC)cc1)OCO2` (stereo not drawn) [K, (α-methyl-4-methoxybenzyl)-3,4-methylenedioxy-6-n-pentoxybenzene], in data set [1], the “GI-90 (concentration of growth inhibitor that would prevent and/or retard growth in 90% of the treated larvae)” value was 0.060 ppm. Besides, the Egg hatch was 70% in data set [2] (0.1% in food), 0% in data set [2] (0.25% in food), 0% in data set [2] (0.5% in food) and 0% in data set [2] (1.0% in food). Further, the Pupal development was 70% in data set [2] (0.1% in food), 0% in data set [2] (0.25% in food), 0% in data set [2] (0.5% in food) and 0% in data set [2] (1.0% in food). Moreover, the “Mortality, parent generation” value in data set [3] (0.1% in food), in data set [3] (0.25% in food), in data set [3] (0.5% in food) and in data set [3] (1.0% in food) was 0% each time.
Consider `CCOc1c(C)cc(Cc2ccc3c(c2)OCO3)cc1C` [KK], for which the “GI-90 (concentration of growth inhibitor that would prevent and/or retard growth in 90% of the treated larvae)” value in data set [1] is 0.9 ppm. Moreover, in data set [2] (0.25% in food), the Egg hatch is recorded as 85% and the Pupal development came to 85%. Moreover, the “Mortality, parent generation” value in data set [3] (0.25% in food) came out at 0%. For the same compound, in data set [3] (0.5% in food), the “Mortality, parent generation” value was 85%.
As for `COc1ccc(Cc2cc3c(cc2OC)OCO3)cc1` [L, (4-Methoxybenzyl)-3,4-methylenedioxy-6-methoxybenzene], the Egg hatch came to 91% in data set [2] (0.01% in food), 0% in data set [2] (0.05% in food) and 0% in data set [2] (0.1% in food). For the same compound, the Pupal development in data set [2] (0.01% in food) is reported as 91%; in data set [2] (0.05% in food) it was 0%; in data set [2] (0.1% in food) it was 0%. Besides, the “Mortality, parent generation” value is given as 0% in data set [3] (0.01% in food), 0% in data set [3] (0.05% in food), 0% in data set [3] (0.1% in food) and 60% in data set [3] (0.25% in food).
As to `COc1ccc(Cc2ccc3c(c2)OCO3)c(OC)c1` [LL, (2,4-Dimethoxybenzyl)-3,4-methylenedioxybenzene], in data set [1], the “GI-90 (concentration of growth inhibitor that would prevent and/or retard growth in 90% of the treated larvae)” value is 0.2 ppm. Further, in data set [2] (0.1% in food), the Egg hatch worked out at 76% and the Pupal development is reported as 76%. In addition, the “Mortality, parent generation” value in data set [3] (0.1% in food) is on record as 0%. Moreover, in data set [3] (0.25% in food), the “Mortality, parent generation” value worked out at 60%.
In the case of `CCOc1cc2c(cc1Cc1ccc3c(c1)OCO3)OCO2` [NN, (3,4-methylenedioxy-6-ethoxybenzyl)-3,4-methylenedioxybenzene], the Egg hatch was found to be 2% in data set [2] (0.05% in food) and 0% in data set [2] (0.1% in food). For the same compound, the Pupal development came to 2% in data set [2] (0.05% in food) and 0% in data set [2] (0.1% in food). Further, the “Mortality, parent generation” value in data set [3] (0.05% in food) and in data set [3] (0.1% in food) was 0% throughout.
Consider `CCCCCOc1cc2c(cc1Cc1ccc(OC)cc1)OCO2` [R], for which the Egg hatch in data set [2] (0.05% in food) turned out to be 76%; in data set [2] (0.1% in food), 31%; in data set [2] (0.25% in food), 0%. Also, the Pupal development in data set [2] (0.05% in food) turned out to be 76%; in data set [2] (0.1% in food), 31%; in data set [2] (0.25% in food), 0%. The “Mortality, parent generation” value in data set [3] (0.05% in food), in data set [3] (0.1% in food) and in data set [3] (0.25% in food) was 0% throughout.
As to `CCCCCOc1cc2c(cc1C(C)c1ccccc1)OCO2` (stereo not drawn) [W, (α-Methylbenzyl)-3,4-methylenedioxy-6-n-pentoxybenzene], the “GI-90 (concentration of growth inhibitor that would prevent and/or retard growth in 90% of the treated larvae)” value in data set [1] was found to be 0.2 ppm.
